13 compounds from PubChem BioAssay (NCI) can be followed below.

Several values for one entry are separate records, joined by “and”; a condition that tells them apart may be missing. Identical values can stand only once.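 Step 1: Grow cells in 96-well plates. Step 2: Expose to compound for 48 hours at 5 concentrations. Step 3: Interpolate endpoints linearly; if unreached, use highest concentration. GI50 marks 50% less growth. TGI: total growth inhibition.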

The subject of one experiment is NCI-H522 lung. The experiment is described as follows: inhibition of tumour cell growth, NCI panel, 48 h.
Take `CCOc1cccc(/C=N/NC(=O)c2ccccc2Nc2ccnc(C(F)(F)F)c2)c1O`: the GI50 was 3.47 µM and the TGI is more than 63 µM.

For `CCOC(=O)/C=C(/C(=O)OCC)n1cc(Cl)c(=O)n(CC(=O)OCC)c1=O`, the TGI was 2.88 µM.

Consider `CC1=C(C(=O)Nc2ccc3[nH]ncc3c2)C(c2ccc3ccccc3c2)CC(=O)N1` (stereo not given), for which the GI50 was 13.8 µM and the TGI was more than 25 µM.

On to `CC1OC(O[C@H]2C[C@@H](O)[C@]3(CO)[C@H]4[C@H](O)C[C@]5(C)[C@@H](C6=CC(=O)OC6)CC[C@]5(O)[C@@H]4CC[C@]3(O)C2)C(O)C(O)C1O` (stereo not given in full), for which the GI50 is 17.8 µM and the TGI is 32.5 µM.

For the compound `O=C1/C(=C/c2ccc(Br)cc2)C=C(c2ccccc2)N1CCc1ccccc1`, the GI50 was 6.54 µM and the TGI turned out to be 87.1 µM.

For `CSc1ccc(C2=NN(C(C)=O)C(c3cc(C)cs3)C2)cc1` (stereo not given), the GI50 was 17.9 µM and the TGI was 74.9 µM.

Consider `COc1cccc(-c2cc(=O)c3cc(N(C)C)ccc3[nH]2)c1`, for which the GI50 is 0.0184 µM and 0.00392 µM; the TGI was 0.0445 µM and 0.0205 µM.

Turning to `CCCCC(=O)OCC1OC(n2cnc3c(=S)nc[nH]c32)C(OC(=O)CCCC)C1OC(=O)CCCC` (stereo not given), the GI50 is 0.498 µM and the TGI came out at 60.2 µM.

`O=c1oc2ccc(F)cc2c(=O)n1-c1ccc(F)cc1F`: the GI50 was 2.61 µM and the TGI amounted to 12.3 µM.

Turning to `O=C(O)CCCCC(CCSCc1ccccc1)SCc1ccccc1` (stereo not given), the GI50 is 34.1 µM and the TGI was more than 100 µM.

In the case of `CC1=C(CCCNS(C)(=O)=O)C2=C(C)C3(CC3)[C@@](C)(O)C(=O)C2=C1`, the GI50 was 2.09 µM and the TGI was found to be 7.7 µM.

`N#Cc1ccc(C#Cc2ccccc2C#CCCCCO)cc1`: the GI50 is 16.1 µM and the TGI turned out to be 31.1 µM.

Consider `O=NN(Cc1ccc(Cl)cc1)C(C(=O)O)c1ccccc1` (stereo not given), for which the TGI was more than 100 µM.

For another experiment, the system named is HOP-62 NSCLC. The experiment in a line: inhibition of tumour cell growth, NCI panel, 48 h.
For `CCOc1cccc(/C=N/NC(=O)c2ccccc2Nc2ccnc(C(F)(F)F)c2)c1O`, the GI50 is 0.901 µM and the TGI is more than 53.8 µM.

`CCOC(=O)/C=C(/C(=O)OCC)n1cc(Cl)c(=O)n(CC(=O)OCC)c1=O`: the GI50 was 30.8 µM; the TGI is 25 µM and 91.3 µM.

`CC1=C(C(=O)Nc2ccc3[nH]ncc3c2)C(c2ccc3ccccc3c2)CC(=O)N1` (stereo not given): the GI50 is 6.46 µM and the TGI is more than 25 µM.

For `CC1OC(O[C@H]2C[C@@H](O)[C@]3(CO)[C@H]4[C@H](O)C[C@]5(C)[C@@H](C6=CC(=O)OC6)CC[C@]5(O)[C@@H]4CC[C@]3(O)C2)C(O)C(O)C1O` (stereo not given in full), the GI50 is 21.7 µM and the TGI came to 51.9 µM.

For the compound `O=C1/C(=C/c2ccc(Br)cc2)C=C(c2ccccc2)N1CCc1ccccc1`, the GI50 was 0.347 µM and the TGI was determined as 1.22 µM.

With `CSc1ccc(C2=NN(C(C)=O)C(c3cc(C)cs3)C2)cc1` (stereo not given), the GI50 was 37.3 µM and the TGI was more than 100 µM.

For `COc1cccc(-c2cc(=O)c3cc(N(C)C)ccc3[nH]2)c1`, the TGI is more than 100 µM.

Regarding `CCCCC(=O)OCC1OC(n2cnc3c(=S)nc[nH]c32)C(OC(=O)CCCC)C1OC(=O)CCCC` (stereo not given), the GI50 was 1.01 µM and the TGI is more than 100 µM.

For the compound `O=c1oc2ccc(F)cc2c(=O)n1-c1ccc(F)cc1F`, the GI50 was 2.39 µM and the TGI is 8.05 µM.

Consider `O=C(O)CCCCC(CCSCc1ccccc1)SCc1ccccc1` (stereo not given), for which the GI50 is 68.6 µM and the TGI is more than 100 µM.

Turning to `CC1=C(CCCNS(C)(=O)=O)C2=C(C)C3(CC3)[C@@](C)(O)C(=O)C2=C1`, the GI50 is 0.421 µM and the TGI was 2.33 µM.

On to `N#Cc1ccc(C#Cc2ccccc2C#CCCCCO)cc1`, for which the GI50 was 11.7 µM and the TGI was determined as 24 µM.

Regarding `O=NN(Cc1ccc(Cl)cc1)C(C(=O)O)c1ccccc1` (stereo not given), the TGI was more than 100 µM.

In another experiment the test system is OVCAR-4 ovarian. The experiment in a line: inhibition of tumour cell growth, NCI panel, 48 h.
Take `CCOc1cccc(/C=N/NC(=O)c2ccccc2Nc2ccnc(C(F)(F)F)c2)c1O`: the GI50 was 0.18 µM.

`CCOC(=O)/C=C(/C(=O)OCC)n1cc(Cl)c(=O)n(CC(=O)OCC)c1=O`: the GI50 is 34.2 µM; the TGI is 14 µM and > 100 µM.

With `CC1=C(C(=O)Nc2ccc3[nH]ncc3c2)C(c2ccc3ccccc3c2)CC(=O)N1` (stereo not given), the GI50 is 13.4 µM and the TGI is more than 25 µM.

Turning to `CC1OC(O[C@H]2C[C@@H](O)[C@]3(CO)[C@H]4[C@H](O)C[C@]5(C)[C@@H](C6=CC(=O)OC6)CC[C@]5(O)[C@@H]4CC[C@]3(O)C2)C(O)C(O)C1O` (stereo not given in full), the GI50 was 17.3 µM and the TGI was determined as 33.1 µM.

As for `O=C1/C(=C/c2ccc(Br)cc2)C=C(c2ccccc2)N1CCc1ccccc1`, the GI50 is 0.554 µM and the TGI was 3.13 µM.

For `CSc1ccc(C2=NN(C(C)=O)C(c3cc(C)cs3)C2)cc1` (stereo not given), the GI50 is 18 µM and the TGI was more than 100 µM.

In the case of `COc1cccc(-c2cc(=O)c3cc(N(C)C)ccc3[nH]2)c1`, the TGI is more than 100 µM.

`CCCCC(=O)OCC1OC(n2cnc3c(=S)nc[nH]c32)C(OC(=O)CCCC)C1OC(=O)CCCC` (stereo not given): the GI50 is 0.441 µM and the TGI is more than 100 µM.

`O=c1oc2ccc(F)cc2c(=O)n1-c1ccc(F)cc1F`: the GI50 is 3.02 µM and the TGI came out at 30.2 µM.

With `O=C(O)CCCCC(CCSCc1ccccc1)SCc1ccccc1` (stereo not given), the GI50 is 70.2 µM and the TGI is more than 100 µM.

On to `CC1=C(CCCNS(C)(=O)=O)C2=C(C)C3(CC3)[C@@](C)(O)C(=O)C2=C1`, for which the GI50 was 0.9 µM and the TGI was determined as 5.32 µM.

As to `N#Cc1ccc(C#Cc2ccccc2C#CCCCCO)cc1`, the GI50 is 26.2 µM and the TGI worked out at 65.9 µM.

Consider `O=NN(Cc1ccc(Cl)cc1)C(C(=O)O)c1ccccc1` (stereo not given), for which the TGI was more than 100 µM.

Another experiment concerns MOLT-4 leukemia. The experiment in a line: inhibition of tumour cell growth, NCI panel, 48 h.
For `CCOc1cccc(/C=N/NC(=O)c2ccccc2Nc2ccnc(C(F)(F)F)c2)c1O`, the GI50 was 0.116 µM and the TGI stood at 0.459 µM.

Regarding `CCOC(=O)/C=C(/C(=O)OCC)n1cc(Cl)c(=O)n(CC(=O)OCC)c1=O`, the GI50 was 3.29 µM; the TGI is 25 µM and 10.5 µM.

Take `CC1=C(C(=O)Nc2ccc3[nH]ncc3c2)C(c2ccc3ccccc3c2)CC(=O)N1` (stereo not given): the GI50 was more than 25 µM and the TGI was more than 25 µM.

Turning to `CC1OC(O[C@H]2C[C@@H](O)[C@]3(CO)[C@H]4[C@H](O)C[C@]5(C)[C@@H](C6=CC(=O)OC6)CC[C@]5(O)[C@@H]4CC[C@]3(O)C2)C(O)C(O)C1O` (stereo not given in full), the GI50 was 17.9 µM and the TGI stood at 41.8 µM.

As to `O=C1/C(=C/c2ccc(Br)cc2)C=C(c2ccccc2)N1CCc1ccccc1`, the GI50 is 18.4 µM and the TGI was more than 100 µM.

As to `CSc1ccc(C2=NN(C(C)=O)C(c3cc(C)cs3)C2)cc1` (stereo not given), the GI50 is 7.26 µM and the TGI came out at 44.1 µM.

As for `COc1cccc(-c2cc(=O)c3cc(N(C)C)ccc3[nH]2)c1`, the GI50 is 0.0435 µM and 0.00642 µM; the TGI is 0.0401 µM and 0.0259 µM.

As to `CCCCC(=O)OCC1OC(n2cnc3c(=S)nc[nH]c32)C(OC(=O)CCCC)C1OC(=O)CCCC` (stereo not given), the GI50 is 5.74 µM and the TGI was more than 100 µM.

Regarding `O=c1oc2ccc(F)cc2c(=O)n1-c1ccc(F)cc1F`, the GI50 was 3.46 µM and the TGI was more than 100 µM.

For the compound `O=C(O)CCCCC(CCSCc1ccccc1)SCc1ccccc1` (stereo not given), the GI50 was 47 µM and the TGI was more than 100 µM.

Regarding `CC1=C(CCCNS(C)(=O)=O)C2=C(C)C3(CC3)[C@@](C)(O)C(=O)C2=C1`, the GI50 is 37.2 µM and the TGI was more than 100 µM.

Consider `N#Cc1ccc(C#Cc2ccccc2C#CCCCCO)cc1`, for which the GI50 was 17.8 µM and the TGI was 37.7 µM.

`O=NN(Cc1ccc(Cl)cc1)C(C(=O)O)c1ccccc1` (stereo not given) returned a TGI of more than 100 µM.

Another experiment relates to MALME-3M melanoma. The experiment in a line: inhibition of tumour cell growth, NCI panel, 48 h.
As for `CCOc1cccc(/C=N/NC(=O)c2ccccc2Nc2ccnc(C(F)(F)F)c2)c1O`, the GI50 was 0.835 µM and the TGI came to 43.6 µM.

On to `CCOC(=O)/C=C(/C(=O)OCC)n1cc(Cl)c(=O)n(CC(=O)OCC)c1=O`, for which the TGI was determined as 10.3 µM.

Take `CC1=C(C(=O)Nc2ccc3[nH]ncc3c2)C(c2ccc3ccccc3c2)CC(=O)N1` (stereo not given): the GI50 is 11 µM and the TGI is more than 25 µM.

In the case of `CC1OC(O[C@H]2C[C@@H](O)[C@]3(CO)[C@H]4[C@H](O)C[C@]5(C)[C@@H](C6=CC(=O)OC6)CC[C@]5(O)[C@@H]4CC[C@]3(O)C2)C(O)C(O)C1O` (stereo not given in full), the GI50 is 19.5 µM and the TGI stood at 35.9 µM.

As for `O=C1/C(=C/c2ccc(Br)cc2)C=C(c2ccccc2)N1CCc1ccccc1`, the GI50 was 1.5 µM and the TGI was found to be 6.64 µM.

As to `CSc1ccc(C2=NN(C(C)=O)C(c3cc(C)cs3)C2)cc1` (stereo not given), the GI50 was 25.5 µM and the TGI amounted to 97.5 µM.

In the case of `COc1cccc(-c2cc(=O)c3cc(N(C)C)ccc3[nH]2)c1`, the GI50 was 0.00987 µM and 0.00403 µM; the TGI was more than 100 µM.

For `CCCCC(=O)OCC1OC(n2cnc3c(=S)nc[nH]c32)C(OC(=O)CCCC)C1OC(=O)CCCC` (stereo not given), the GI50 was more than 22.1 µM and the TGI is more than 100 µM.

Consider `O=c1oc2ccc(F)cc2c(=O)n1-c1ccc(F)cc1F`, for which the GI50 is 2.25 µM and the TGI stood at 6.33 µM.

For the compound `O=C(O)CCCCC(CCSCc1ccccc1)SCc1ccccc1` (stereo not given), the GI50 was 87.7 µM and the TGI is more than 100 µM.

For the compound `CC1=C(CCCNS(C)(=O)=O)C2=C(C)C3(CC3)[C@@](C)(O)C(=O)C2=C1`, the GI50 was 0.776 µM and the TGI was 2.62 µM.

Turning to `N#Cc1ccc(C#Cc2ccccc2C#CCCCCO)cc1`, the GI50 was 21 µM and the TGI came to 38.7 µM.

In the case of `O=NN(Cc1ccc(Cl)cc1)C(C(=O)O)c1ccccc1` (stereo not given), the TGI is more than 100 µM.
